Test results from patent US20240425529A1, “BORIC ACID DERIVATIVE” (SHOUYAO HOLDINGS (BEIJING) CO., LTD., priority 2021, published 2024).

Legend:
LMP7 = molecular target: T1, LMP7 (Homo sapiens, UniProt P28062); assay: Enzymatic inhibitory activity on LMP7 (MOLT-4 cell lysate, Ac-ANW-AMC substrate); assay type: biochemical; conditions: 1 hour pre-incubation
T1 construct: using MOLT-4 cell lysate as the enzyme source of LMP7; endogenous in cells; host or cells: MOLT-4 (human acute lymphoblastic leukemia cells)
Outline: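 Enzyme source was MOLT-4 cell lysate (20 ng/μl final) in 20 mM Tris pH 8.0, 0.5 mM EDTA, preincubated 1 h at 23 °C with compound at 9 final concentrations (0–2000 nM). Ac-ANW-AMC ([…]) was then added, 2 h at 23 °C in the dark. AMC fluorescence (ex 345/em 445 nm) gave the IC50.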

[1] = test system: multiple myeloma cells MM. 1S; assay: In-vivo assay I: subcutaneous xenograft model of multiple myeloma cells MM. 1S in mice; conditions: MM. 1S xenograft, NOD/SCID mice; for animal death or weight loss caused by the compound: 2 mg/kg orally once daily for 14 days; for T/C / TGI (tumor growth inhibition rate): 2 mg/kg orally once daily, Day 14
Procedure: Evaluation assay of LMP7 inhibitors in a subcutaneous xenograft model of multiple myeloma cells MM. 1S in mice
Female NOD/SCID mice, week old: 5-6 weeks old, certificate No: SCXK(Jing) 2021-0006, purchased from Beijing Vital River Experimental Animal Technology Co. Ltd.
The specific method was that mice were housed in an SPF environment. Every 5 mice were housed in 1 cage. Animals were free to drink and eat and were adaptively raised for one week. Laboratory conditions: room temperature 18-24° C., relative humidity 40%-70%, ventilated with a ventilation fan, natural light source for 12 hours per day. Cages, bedding, drinking water, and feed were replaced twice a week, and the replaced cages and drinking water bottles were cleaned and then sterilized by steam under high pressure. Cages, room walls, and floors were cleaned twice a week with 84-disinfectant or bromogeramine.
MM. 1S (Cell Resource Center, Institute of Basic Medical Sciences, Chinese Academy of Medical Sciences) cells were cultured using RPMI-1640 medium supplemented with 20% fetal bovine serum and 1% Penicillin-Streptomycin at 37° C. in an atmosphere of 5% CO2 in air. Cells were routinely sub-cultured twice weekly, and cells grown in the exponential growth phase were harvested and counted. Cell suspensions were mixed well in 30% Matrigel™ (Corning Matrigel™ High Concentration Basement Membrane) for tumor cell inoculation.
Mice were pretreated with cyclophosphamide via intraperitoneal injection for 3 days, and each mouse was subcutaneously injected with 0.1 mL of PBS-suspended MM. 1S cell suspension (containing 1.0×10^7 cells, 30% Matrigel) at the axillary sites on both sides to establish a subcutaneous transplanted tumor model of multiple myeloma cells MM. 1S in mice. When the tumor size reached 400-700 mm^3, the tumor mass was collected aseptically and cryopreserved for future use. The MM. 1S tumor mass was revived, and the tumor mass was aseptically collected for 2 generations for an in-vivo efficacy evaluation assay. When the average tumor volume was about 100-150 mm^3, 20 tumor-bearing mice with a relatively regular shape and uniform size were selected for the experiment. They were divided into 4 groups, with 5 animals in each group. The first group of the model group was orally administered with the vehicle once daily; the second group was orally administered with Example 9 (2 mg/kg) once daily; the third group was orally administered with Example 67 (2 mg/kg) once daily; the fourth group was orally administered Example 73 (2 mg/kg) once daily. Administration was started on the day of grouping and continued for 14 days. Tumor diameter and body weight were measured 3 times per week during the experiment. At the end of the experiment, intraocular canthus blood was collected and mice were sacrificed immediately after blood collection to collect tumor tissue.
The study endpoints were tumor growth inhibition, maximum tumor burden (individual tumor size equal to 10% of body weight), and weight loss greater than 20% of body weight at the start of treatment. The tumor volume was calculated as V=0.5×a×b^2, where V is the tumor volume and a and b are the length and width of the tumor, respectively. The tumor growth inhibition rate was calculated as TGI (%)=(1-(tumor volume of treatment group-tumor volume of treatment group at grouping)/(tumor volume of control group-tumor volume of control group at grouping))*100%. Complete tumor regression (CR) is defined as a tumor that is reduced to below the palpation limit (mm^3). Partial tumor regression (PR) is defined as a tumor that is reduced by at least half compared to the initial tumor volume. The minimum duration of CR or PR in three or more consecutive tumor measurements is required to consider CR or PR as persistent. […]

| SMILES | IC50 (LMP7) | animal death or weight loss caused by the compound [1] | T/C [1] | TGI (tumor growth inhibition rate) [1] |
| --- | --- | --- | --- | --- |
| O=C(Nc1cnccn1)C(=O)N[C@@H](Cc1coc2ccccc12)B(O)O [Ex. 9, (R)-(2-(benzofuran-3-yl)-1-(2-oxo-2-(pyrazin-2-ylamino)acetamido)ethyl) boronic acid] | 9.02 nM | no animal death or weight loss | 0.88% | 112.28% |
| O=C1COB([C@H](Cc2coc3ccccc23)NC(=O)C(=O)Nc2cnccn2)O1 [Ex. 73] | 1.23 nM | no animal death or weight loss | 0.53% | 112.56% |
| O=C(Nc1nc2ccccc2s1)C(=O)N[C@@H](Cc1coc2ccccc12)B(O)O [Ex. 27, (R)-(2-(benzofuran-3-yl)-1-(2-oxo-2-((benzo[d]thiazol-2-yl)amino)acetamido)ethyl)boronic acid] | 3.53 nM | – | – | – |
| CC1CC(C)(C)OB([C@H](Cc2coc3ccccc23)NC(=O)C(=O)Nc2cnccn2)O1 (stereo partly shown) [Ex. 67] | 1.59 nM | no animal death or weight loss | 1.57% | 112.06% |
| O=C(Nc1ccccn1)C(=O)N[C@@H](Cc1coc2ccccc12)B(O)O [Ex. 12] | 9.64 nM | – | – | – |
| Cc1cnc(NC(=O)C(=O)N[C@@H](Cc2coc3ccccc23)B(O)O)s1 [Ex. 32, (R)-(2-(benzofuran-3-yl)-1-(2-oxo-2-((5-methylthiazol-2-yl)amino)acetamido)ethyl)boronic acid] | 4.6 nM | – | – | – |
| O=C(Nc1cc(Cl)ccn1)C(=O)N[C@@H](Cc1coc2ccccc12)B(O)O [Ex. 49, (R)-(2-(benzofuran-3-yl)-1-(2-oxo-2-((4-chloropyridin-2-yl)amino)acetamido)ethyl)boronic acid] | 1.51 nM | – | – | – |
